Measured values reported in patent publication US9737563B2, “Magnesium compositions and uses thereof for neurological disorders” (Neurocentria, Inc., priority 2007, dated 2017).
Where two headings read alike, the source gives them in different places.

Experiments:
[1] = system: AD mice; experiment: Morris water maze test, comparison with anti-AD drugs; assay type: in vivo; settings: AD mice aged 13 months
Experimental: Two known anti-AD drugs named […] memantine were administered separately to the mice. For these experiments, mice were tested for effects on memory and learning using the Morris water maze test, essentially as described in the previous example.

[2] = Magnesium absorption rate in rats (metabolic cages, urine and feces magnesium by ICP-AES); settings: Example 5, gluconate in skim milk or 5 weight percent lactose water, chloride in water
Experimental: Fifty 3-month old, male Sprague Dawley (SD) rats were divided into five groups of ten rats. Rats of this age and older are considered adult. Each of the rats was placed in a separate metabolic cage equipped with urine- and feces-collecting wells. All of the rats were maintained in a temperature-controlled room (22° C. to 25° C.) with a dark period from 08:00 pm to 08:00 am daily. From day 1 through day 3, each rat was fed daily 15 g of magnesium-free food and de-ionized water. […] The medium was skim milk for Composition 1 and Group 1, milk prepared from powdered milk, by diluting the powdered milk with water to obtain a composition like that of skim milk, for Composition 2 and Group 2, 1% milk cream in water for Composition 3 and Group 3, water comprising 5 weight percent lactose for Composition 4 and Group 4, and water for the Control Composition and Control Group. […] From day 11 through day 12, each rat was fed daily 15 g of magnesium-free food and de-ionized water.
From day 4 through day 10, urine from each rat was collected daily. The collected urine from each rat was then pooled together and the total volume of the pooled urine from each rat was recorded. The pooled urine from each rat, in an amount of […], was analyzed for magnesium content using an inductively coupled plasma-atomic emission spectrometer (ICP-AES). From day 5 to day 11, feces from each rat were collected daily. The collected feces from each rat were pooled together and the pooled feces were weighed and homogenized. The pooled feces from each rat, in an amount of 0.5 g, were analyzed for magnesium content using an ICP-AES.
A formula was used to calculate a magnesium absorption rate for each rat. The formula used was Y=AX−B, wherein X was the average total daily magnesium intake, Y was the average net daily amount of magnesium absorbed, as calculated by X minus the average daily amount of magnesium excreted from feces, B was the average daily amount of magnesium excreted from feces when the magnesium intake was zero, and the slope A represented the magnesium absorption rate. Data points (X, Y) associated with each rat in each group often rats, with the exception of the best points and the worst points, were plotted. The value of A, the magnesium absorption rate, associated with each of Groups 1-4, and thus with each of the Compositions 1-4, was then obtained using linear regression. The value of A, the magnesium absorption rate, associated with the Control Group, and thus with the Control Composition, was also obtained using linear regression, and relabeled as A0. […]

[3] = system: aging rats (12-14 months old); settings: for novel object exploration preference: single training
Experimental: In this example, the effect of magnesium supplementation on recognition memory was tested. Three groups of rats were used in these experiments: 1) young rats (three months old); aging rats (12-14 months old), and; 3) magnesium-treated aging rats (12-14 months old, diet supplemented with 6 mg/kg MgCl2 from 8 months of age). We used experimentally naive, female, Sprague-Dawley young […], aging (12-14 month old) and […] rats (Charles River) at the beginning of the behavior experiments. They were housed two per cage with continuous access to food and water under a 12:12 light-dark cycle, with light onset at 8:00 a.m. […] All experiments involving animals were approved by the Massachusetts Institute of Technology's and Tsinghua University Committees on Animal Care.
The three groups of rats were tested for recognition memory using an object recognition test with a single exposure to the object during training. The task is based on the natural tendency of rodents to explore new objects and tests the animals' memory capacity for distinguishing novel versus familiar objects.
Briefly, the rats were first individually habituated to the personnel and then to open-field arena during 2 weeks. The rats were then allowed to explore two identical objects placed into the arena at fixed locations until they had accumulated 30 s of total inspection time (where this is defined as active exploration, sniffing or touching the object with the nose and/or forepaws) or for a maximum of 20 min. The rat was returned to the arena for the retention test and allowed to explore for another 30 sec. The retention intervals were 10 min and 24 hours. Objects were cleaned thoroughly between trials with 20% ethanol solution to ensure the absence of olfactory cues. The particular objects for a given trial were randomly determined, but each object was used for only one trial per rat. Memory of the familiar object is associated with increased exploration of the new object and an exploration index (% correct) is calculated as new object inspection time/30. […]

[4] = system: aging rats
Experimental: Three groups of animals (young, aging, and magnesium-treated aging rats) were used. […] Spatial working memory was assessed using a T-maze non-matching-to-place task. […] Spatial working memory was first assessed on an elevated T-maze. The maze was located 1 m above the floor in a well lit laboratory that contained various prominent distal extra-maze cues. The rats were handled and habituated to the maze for 10 days, and to Froot Loop® cereal over several days before the test. Each trial consisted of a sample run and a choice run, with delay intervals of 15 s during the training and the pattern completion tasks. On the sample run, the rats were forced either left or right by the presence of the block, according to a pseudorandom sequence (with equal numbers of left and right turns per session, and with no more than two consecutive turns in the same direction). A cereal reward was available in the food well at the end of the arm. The block was then removed, and the rat was allowed a free choice of either arm. The animal was rewarded for choosing the previously unvisited arm. Rats were run one trial at a time with an inter-trial interval of 10 min. Each daily session consisted of 6 trials.
The rats were tested for 10 consecutive days on a rewarded forced-choice alternation task. The percentage of correct choices (alternations) was recorded for each daily session. […] Then, spatial working memory was tested by a gradual increase of the delay between the sample and the choice trials (FIG. 10, right panel).

[5] = system: diabetic patients; settings: nearly 1 g of magnesium daily for 1 month; cited from earlier work
[6] = system: young (9-month old) and aged (25-month old) rats; settings: food containing 2% for 8 days, cited from earlier work
[7] = relatively high magnesium dosage
[8] = relatively low magnesium dosage

COc1cc2c(cc1OC)C(=O)C(CC1CCN(Cc3ccccc3)CC1)C2 (stereo not drawn) [aricept]
reducing the effects of AD on learning capacity [1]: both being better at reducing the effects of AD on learning capacity than aricept

[Cl-].[Cl-].[Mg+2] [magnesium chloride]
magnesium absorption rate [2, 7]: less desirable
magnesium absorption rate [2, 8]: suitable, but lower
novel object exploration preference ([3]; 10 minute retention interval, aging rats, 6 mg/kg from 8 months of age): preferentially explored the novel object to the same extent as young rats
novel object exploration preference ([3]; 24 hours retention interval): lose there ability to distinguish novel versus familiar objects
novel object preference ([3]; two training sessions separated by 10 minutes, 24-hour retention interval): retained a high level of preference
spatial working memory with increased delay ([4]; 2 and 5 min delays, p<0.05): significantly enhanced the performance of the aging rats at 2 and 5 min delays
percentage of correct choices during training ([4]; 15 sec delay, versus untreated aging rats, p<0.05): performed significantly better from their first trials
asymptotic choice accuracy level ([4]; after 8 days of training, all three groups): ~94%

[O]=[Mg] [magnesium oxide]
metabolic control [5]: only minor improvement in metabolic control
side-effect [6]: diarrhea and weight loss
cognitive function ([6]; gain transient): some sign of improvement of cognitive function

CC12CC3CC(C)(C1)CC(N)(C3)C2 [memantine]
reducing the effects of AD on learning capacity [1]: better at reducing the effects of AD on learning capacity than aricept

magnesium gluconate
magnesium absorption rate [2, 7]: suitably close to those associated with the lower dosage compositions
magnesium absorption rate [2, 8]: suitable magnesium absorption rates
